Measured values published in patent publication US11452723B2, “Combination dosage form of a mu opioid receptor antagonist and an opioid agent” (THERAVANCE BIOPHARMA R&D IP, LLC, priority 2015, dated 2022).
Where a name gives a salt, the structure may show the parent alone.

Experiments:
[1] = as described in U.S. Pat. No. 7,943,772; cited from earlier work
[2] = Excipient compatibility study: chemical stability of films at 40° C./88% RH by HPLC; format: physicochemical; settings: T = 0; no coating material (ratio N/A)
Experimental: The compatibility of axelopran with four compositions of commercial coating materials was studied as a function of ratio of coating material to axelopran. Mixtures of axelopran sulfate and the materials of Table 15 were dried at 40° C. in weighing boats to form films. Chemical stability of the films stored at accelerated conditions of 40° C. and 88% relative humidity for 2 weeks were analyzed by HPLC.

[3] = target: T1, mu opioid receptor (Homo sapiens, UniProt P35372); settings: non-cancer pain patients on a stable opioid regimen; cited from earlier work
T1 construct: host or cells: patients (endogenous peripheral/gastrointestinal receptors)
T1 sequence (P35372 whole entry): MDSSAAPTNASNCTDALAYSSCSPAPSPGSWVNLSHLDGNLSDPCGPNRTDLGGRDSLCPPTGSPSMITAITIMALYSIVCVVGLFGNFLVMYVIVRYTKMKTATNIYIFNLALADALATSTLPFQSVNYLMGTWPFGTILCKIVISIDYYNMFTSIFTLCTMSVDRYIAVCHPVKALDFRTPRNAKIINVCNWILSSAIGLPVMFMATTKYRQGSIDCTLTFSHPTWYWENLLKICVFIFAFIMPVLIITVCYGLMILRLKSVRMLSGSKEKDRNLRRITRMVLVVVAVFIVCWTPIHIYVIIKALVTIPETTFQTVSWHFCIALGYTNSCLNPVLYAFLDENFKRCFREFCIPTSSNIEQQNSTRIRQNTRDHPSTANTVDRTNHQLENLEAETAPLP

| Compound | stability of solid form (in words) [1] | Axelopran Assay [2] [% Area] | amelioration of symptoms of opioid induced constipation (in words) [3] |
| --- | --- | --- | --- |
| NC(=O)c1cccc([C@H]2C[C@H]3CC[C@@H](C2)N3CCN(CC2CCCCC2)C(=O)[C@@H](O)CO)c1 [amorphous axelopran] | not sufficiently stable for use in a drug product | – | – |
| NC(=O)c1cccc([C@H]2C[C@H]3CC[C@@H](C2)N3CCN(CC2CCCCC2)C(=O)[C@@H](O)CO)c1 [axelopran sulfate] | forms a stable crystalline form | – | – |
| NC(=O)c1cccc([C@H]2C[C@H]3CC[C@@H](C2)N3CCN(CC2CCCCC2)C(=O)[C@@H](O)CO)c1 [axelopran, 3-((1R,3r,5S)-8-(2-((cyclohexylmethyl)((2S)-2,3-dihydroxypropanoyl)amino)ethyl)-8-azabicyclo[3.2.1]octan-3-yl)benzamide] | – | 99.70 | ameliorate the symptoms of OIC in non-cancer pain patients on a stable opioid regimen without compromising analgesia |
